Experimental data published in ChEMBL document CHEMBL1130705, “Synthesis and antiplatelet effects of an isoxazole series of glycoprotein IIb/IIIa antagonists” (Bioorg Med Chem Lett, 1998).

What was measured:
Homo sapiens [1] = organism: Homo sapiens; experiment: Compound was tested for inhibition of ADP induced platelet aggregation by using human platelet rich plasma(PRP) assay; type: functional
Homo sapiens [2] = organism: Homo sapiens; experiment: Compound was tested for inhibition of ADP induced platelet aggregation by using human platelet rich plasma (PRP) assay; type: functional

Structure (SMILES)	IC50 (Homo sapiens [1]) [µM]	IC50 (Homo sapiens [2]) [µM]
CCCCOC(=O)N[C@@H](CNC(=O)c1cc(OCc2ccc(C(=N)N)cc2)no1)C(=O)OC	0.05	
CCCCOC(=O)N[C@@H](CNC(=O)c1cc(OCC2CCN(C(=N)N)CC2)no1)C(=O)OC		0.2
CCCCOC(=O)N[C@@H](CNC(=O)c1cccc(COc2ccc(C(=N)N)cc2)c1)C(=O)OC	0.032	
CCCCOC(=O)N[C@@H](CNC(=O)c1cc(OCc2ccc(C(=N)N)cc2)no1)C(=O)O	0.06	
